Data: patent US20230140691A1, “OPTICALLY CLEAR, IN-SITU FORMING BIODEGRADABLE NANO-CARRIERS FOR OCULAR THERAPY, AND METHODS USING SAME” (Rowan University, priority 2017, published 2023)

Test: In vitro drug release from PLGA-PEG-PLGA hydrogel in microfluidic devices at physiological flow rate
Assay type: physicochemical
Details: 15 μg HA loaded; for release rate of hyaluronic acid from hydrogel: 35° C.; for amount of HA released: in 10 days
Experimental: The final volume of the hydrogel solution with the compound of interest was constrained to 100 μL because of the anatomical space in the lens capsule. Physiological flow rate (2.4 μl/min) was achieved using microfluidic devices. The devices resemble the anatomical dimensions of both the anterior and posterior chamber of the human eye, as well as the physiological dynamics of the aqueous humor flow. All of the release studies were conducted at 35° C. • a. Dexamethasone (Hydrophobic): 100 μL of PLGA-PEG-PLGA hydrogel solution at 25 (w/v) % was mixed with 100 μg of dexamethasone. The collected samples were analyzed via HPLC. • b. […] The collected samples were analyzed via fluoresce spectroscopy at an excitation, filter, and emission wavelengths (nm) of 483, 515 524, respectively • c. Nucleic acid conjugates (Hydrophilic): 62 μL of nucleic acid conjugates in PBS solution (31 μg) were mixed with 38 μL of hydrogel solution at a concentration of 25 (w/v) %. Because the nucleic acid conjugates were already dissolved in PBS, the hydrogel solution was diluted down to 14 (w/v) %. The collected samples were analyzed via fluorescence spectroscopy at an excitation, filter, and emission wavelengths (nm) of 642, 665, and 670, respectively. • d. Hyaluronic acid (Hydrophilic): 30 μL of hyaluronic acid (HA, 800 KDa) stock solution at a concentration of 0.5 mg/mL in PBS (15 ug of HA) was mixed with 56 μL of hydrogel solution at a concentration of 25 (w/v) %. In addition, 14 μL of PBS were added to diluted the hydrogel solution down to 14 (w/v) %. Samples containing PLL were prepared by adding to the already mentioned composition 10 mg of PLL (10 (w/v) % PLL). The collected samples were analyzed via fluorescence spectroscopy at an excitation, filter, and emission wavelengths (nm) of 483, 495, 518, respectively.

[1] = systems modified with 10 (w/v) % PLL

## Hyaluronic acid
Control systems, no PLL
  release rate of hyaluronic acid from hydrogel: 0.087 ± 0.044 µg/h
  amount of HA released: 13 µg
[1]
  release rate of hyaluronic acid from hydrogel: 0.055±0.026
  amount of HA released: 11 µg
